Laboratory results taken from patent publication US20130267571A1, “TERPENOID ANALOGUES AND USES THEREOF FOR TREATING NEUROLOGICAL CONDITIONS” (NeuroQuest Inc., priority 2010, published 2013).

How the values were obtained:
[1] = tested on: voltage-gated Na+ channels; experiment: Sodium (Na+) channel analysis in rat DRG neurons using whole cell patch-clamp; format: cell-based; details: Na+ currents in isolated rat DRG neurons, 3 min in presence of drug, read-out: IC50 range
Method: Isolated DRG neurons were suspended in primary neuron basal media and placed on glass coverslips for incubation in humidified atmosphere of 5% CO2 at 37° C. Coverslips carrying cells was transferred to the bath of an inverted microscope (Zeiss), continuously perfused with oxygenated artificial cerebro-spinal fluid (ACSF) containing (in mM) 124 NaCl, 2.5 KCl, 2 CaCl2, 1 MgSO4, 25 NaHCO3, 1 NaH2PO4, and 10 glucose, at a rate of 2-3 ml/min. Recording of whole-cell membrane currents were made at room temperature. Recording pipette (4-6 MS2) was filled with internal solution containing (in mM) 145 K-gluconate, 5 NaCl, 1 MgCl2, 0.2 EGTA, 10 HEPES, 2 Mg-ATP, 0.1 Na-GTP, and 10 phosphocreatine. To isolate Na^+ currents, DRG neurons were superfused with ACSF containing tetraethylammonium chloride (TEA) 5 mM, cesium chloride (CsCl) 100 μM and cadmium chloride (CdCl) 1 mM, to block potassium and calcium currents. NQ compounds were freshly dissolved in ASCF containing TEA, CsCl and CdCl, prior application via the bath.
For recording Na^+ currents, cells were held at −60 mV before applying a conditioning hyperpolarizing step (50 ms) to −90 mv to reactivate the voltage-gated Na^+ channels. The conditioning pulse was followed by depolarizing (150 ms) test pulses to 50 mV in 10 mV increments. Na^+ currents were recorded in absence, after 3 min in presence of the drugs and after a recovery time of 3 min.

zebrafish embryos = experiment: Zebrafish response (anaesthesia) assay, touch response/swim behaviour; format: in vivo; details: Danio rerio, 1.5 h; complete anaesthesia (scale 1) in 50% of AB wild type embryos (54 hpf), 90 min at 28° C.
Description: Briefly, the ZEA assay involves applying essential oils, fractions or individual compounds to developmentally staged zebrafish embryos followed by monitoring of embryonic touch response/swim behaviour and evaluation of the dose response relationship for each substance. Using a four point scale to describe the embryonic behaviours (Table 4), initial analysis focused on monitoring and recording these changes and evaluating the level of bioactivity. The effective concentration to generate complete anaesthesia in 50% of the embryos (EC50), were evaluated as follows:
Compounds are tested on developmentally staged AB “wild type” zebrafish embryos (54 hpf+/−2 hpf) at concentrations ranging between 10 and 400 μM.
Each compound is diluted in a 95% ethanol or DMSO carrier to create a working stock solution from which appropriate dilutions are made in standard embryo E3 media.
1000 μl of each concentration or appropriate carrier control are added to 10 wild type AB embryos in a single well of a 24 well plate, in duplicate.
The embryos are incubated for 90 min at 28° C. (optimal temperature for embryonic growth) in the diluted compound.
A four point scale (Table 4) is used to evaluate the touch response and swim behaviour for each embryo in all wells.
The effectiveness of the compound will be based on its ability to generate complete anaesthesia (scale: 1) in 50% of the embryos at a given concentration (EC50).
The EC50 values are calculated using GraphPad Prism® software to analyze the log (dose) response curves.

TRPV1 = TRPV1 (Homo sapiens, UniProt Q8NER1); experiment: TRPV1 assay, calcium imaging; format: cell-based; details: Ca2+ imaging (Fura-2-AM) after stimulation with 1 μM capsaicin
TRPV1, sequence (Q8NER1 whole entry, species assumed): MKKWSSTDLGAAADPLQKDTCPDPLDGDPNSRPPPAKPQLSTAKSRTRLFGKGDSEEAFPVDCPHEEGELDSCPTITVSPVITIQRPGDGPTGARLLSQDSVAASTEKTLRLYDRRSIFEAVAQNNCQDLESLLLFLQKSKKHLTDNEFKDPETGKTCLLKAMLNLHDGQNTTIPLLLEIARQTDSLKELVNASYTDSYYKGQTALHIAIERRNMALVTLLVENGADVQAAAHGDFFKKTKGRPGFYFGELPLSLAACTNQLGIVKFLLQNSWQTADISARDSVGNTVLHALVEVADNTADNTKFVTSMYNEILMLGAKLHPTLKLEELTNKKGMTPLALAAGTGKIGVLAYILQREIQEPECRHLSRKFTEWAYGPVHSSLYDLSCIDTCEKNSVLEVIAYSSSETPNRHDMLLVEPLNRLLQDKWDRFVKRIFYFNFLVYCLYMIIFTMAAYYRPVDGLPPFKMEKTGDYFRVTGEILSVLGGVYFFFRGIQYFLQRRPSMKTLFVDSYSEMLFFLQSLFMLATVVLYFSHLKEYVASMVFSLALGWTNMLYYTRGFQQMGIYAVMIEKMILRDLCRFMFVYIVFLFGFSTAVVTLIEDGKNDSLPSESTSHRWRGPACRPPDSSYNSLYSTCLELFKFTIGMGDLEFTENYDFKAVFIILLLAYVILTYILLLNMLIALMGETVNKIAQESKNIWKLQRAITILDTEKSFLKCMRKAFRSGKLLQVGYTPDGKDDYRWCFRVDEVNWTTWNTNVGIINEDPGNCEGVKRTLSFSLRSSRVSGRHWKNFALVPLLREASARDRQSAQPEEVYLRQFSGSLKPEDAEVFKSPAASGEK
Method: Briefly, cells are seeded into poly-L-lysine-coated, glass-bottom, 24-well plates (1×10^5 cells/well) and incubated overnight under standard culture conditions to achieve the desired confluency. Culture media is removed and cells washed twice with HBS prior to incubation for 15 to 60 min at 37° C. with a labelling mixture comprised of Fura-2-AM and pluronic acid in HBS. Data collection occurs over an eight minute period and follows the same general sequence. Following loading, cells are stimulated by addition of 1 μM of capsaicin agonist for 2 min, after which a concentration series of the test sample (e.g., (0.5, 5, 10, 50 μg/ml) is added and imaging continued for an additional 5 min. Capsazepine (20 μM) serves as a known reference antagonist, while cells that are mock-treated or receive vehicle (e.g., DMSO) alone serve as negative controls. For imaging, plates are placed on the stage of an inverted epifluorescence microscope (e.g. Axiovert 200, Zeiss) equipped with a CCD digital camera (e.g., Axiocam MRm, Zeiss). For each well of the plate, a sequence of image pairs (excitation at 340 nm and 380 nm) are collected to capture intracellular calcium flux. Image sequences are analyzed in Image) (NIH) and average pixel intensities calculated for six representative cells in each test condition to achieve mean fluorescence.

| Structure (SMILES) | IC50 [1] [mM] | EC50 (zebrafish embryos) [µM] | IC50 (TRPV1) [µM] |
| --- | --- | --- | --- |
| CNC(=O)/C=C(\C)CCC=C(C)C [NQ 2991, (E)-N,3,7-trimethylocta-2,6-dienamide] | 1 to 5 | – | – |
| CC(C)=CCC/C(C)=C\C(=O)O [NQ 3001, (Z)-3,7-dimethylocta-2,6-dienoic acid] | > 10 | – | – |
| CC(C)=CCC/C(C)=C/C(=O)C(F)(F)F [NQ 3066, (E)-1,1,1-trifluoro-4,8-dimethylnona-3,7-dien-2-one] | 1 to 5 | – | – |
| CCC(N)/C=C(\C)CCC=C(C)C (stereo not shown) [NQ 3078, (E)-5,9-dimethyldeca-4,8-dien-3-amine] | < 0.1 | – | – |
| CC(C)=CCC/C(C)=C\C=O [NQ 3000, (Z)-3,7-dimethylocta-2,6-dienal] | 5 to 10 | – | – |
| CC(C)=CCC/C(C)=C/CN (single isomer, unassigned) [NQ 2981, (E)-3,7-dimethylocta-2,6-dien-1-amine] | < 0.1 | 217 | – |
| CC(C)=CCC/C(C)=C/C(O)(C(F)(F)F)C(F)(F)F [NQ 3067, (E)-1,1,1-trifluoro-4,8-dimethyl-2-(trifluoromethyl)nona-3,7-dien-2-ol] | 0.1 to 1 | – | – |
| CC(C)=CCC/C(C)=C/C(C)N (stereo not shown) [NQ 3079, (E)-4,8-dimethylnona-3,7-dien-2-amine] | 0.1 to 1 | – | – |
| CC(C)=CCC/C(C)=C/S(N)(=O)=O [NQ 3063, (E)-2,6-dimethylhepta-1,5-diene-1-sulfonamide] | 1 to 5 | – | – |
| CNC/C=C(\C)CCC=C(C)C [NQ 3007, (E)-N,3,7-trimethylocta-2,6-dien-1-amine] | 1 to 5 | – | – |
| CC(C)=CCC/C(C)=C/C(O)C(C)C (stereo not shown) [NQ 3083, (E)-2,5,9-trimethyldeca-4,8-dien-3-ol] | 1 to 5 | – | – |
| CC(C)=CCC/C(C)=C/C(N)C(C)C (stereo not shown) [NQ 3082, (E)-2,5,9-trimethyldeca-4,8-dien-3-amine] | < 0.1 | – | – |
| CC(C)=CCCC(C)=CC(=O)O [NQ 2978, 3,7-dimethyloct-2,6-dienoic acid] | > 10 | 71.1 | – |
| CC(C)=CCC/C(C)=C/CS(C)(=O)=O [NQ 3053, (E)-3,7-dimethyl-1-(methylsulfonyl)octa-2,6-diene] | 1 to 5 | – | – |
| CC(C)=CCC/C(C)=C/C(N)c1ccccc1 (stereo not shown) [NQ 3085, (E)-3,7-dimethyl-1-phenylocta-2,6-dien-1-amine] | < 0.1 | – | – |
| CC(C)=CCC/C(C)=C/CN(C)C [NQ 2990, (E)-N,N,3,7-tetramethylocta-2,6-dien-1-amine] | 1 to 5 | – | – |
| CC(C)=CCCC(C)=Cc1nn[nH]n1 [NQ 3045, 5-(2,6-dimethylhepta-1,5-dien-1-yl)-2H-tetrazole] | 1 to 5 | – | – |
| CC(C)=CCC/C(C)=C/CNC(=O)c1ccccc1O [NQ 2987, (E)-N-(3,7-dimethylocta-2,6-dienyl)-2-hydroxybenzamide] | 1 to 5 | 134 | – |
| CC(C)=CCC/C(C)=C/S(=O)(=O)NCC(F)(F)F [NQ 3064, (E)-2,6-dimethyl-N-(2,2,2-trifluoroethyl)hepta-1,5-diene-1-sulfonamide] | 1 to 5 | – | – |
| CC(C)=CCC/C(C)=C/C(=O)N(C)C [NQ 2988, (E)-N,N,3,7-tetramethylocta-2,6-dienamide] | 1 to 5 | – | – |
| CC(C)=CCC/C(C)=C\S(=O)(=O)NCC(F)(F)F [NQ 3069, (Z)-2,6-dimethyl-N-(2,2,2-trifluoroethyl)hepta-1,5-diene-1-sulfonamide] | 0.1 to 1 | – | – |
| CNS(=O)(=O)/C=C(\C)CCC=C(C)C [NQ 3060, (E)-N,2,6-trimethylhepta-1,5-diene-1-sulfonamide] | 1 to 5 | – | – |
| CC(C)=CCC/C(C)=C/C[S+](C)[O-] (stereo not shown) [NQ 3054, (E)-3,7-dimethyl-1-(methylsulfinyl)octa-2,6-diene] | 1 to 5 | – | – |

| Structure (SMILES) | IC50 [1] [mM] | EC50 (zebrafish embryos) [µM] | IC50 (TRPV1) [µM] |
| --- | --- | --- | --- |
| CC(=O)NC/C=C(\C)CCC=C(C)C [NQ 2985, (E)-N-(3,7-dimethylocta-2,6-dienyl)acetamide] | 1 to 5 | 264 | – |
| CC(C)=CCC/C(C)=C/[S+](C)[O-] (stereo not shown) [NQ 3057, (E)-2,6-dimethyl-1-(methylsulfinyl)hepta-1,5-diene] | 1 to 5 | – | – |
| CC(C)=CCC/C(C)=C/C(N)CCCO (stereo not shown) [NQ 3084, (E)-4-amino-6,10-dimethylundeca-5,9-dien-1-ol] | 0.1 to 1 | – | – |
| CNC(=O)C=C(C)CCC=C(C)C [NQ 2980, N,3,7-trimethylocta-2,6-dienamide] | 0.1 to 1 | 187 | > 552 |
| CC(C)=CCC/C(C)=C/C(=O)N(C)O [NQ 3055, (E)-N-hydroxy-N,3,7-trimethylocta-2,6-dienamide] | 0.1 to 1 | – | – |
| CON(C)C(=O)/C=C(\C)CCC=C(C)C [NQ 3052, (E)-N-methoxy-N,3,7-trimethylocta-2,6-dienamide] | 0.1 to 1 | – | – |
| CC(C)=CCC/C(C)=C/S(=O)(=O)NCc1ccccc1 [NQ 3071, (E)-N-benzyl-2,6-dimethylhepta-1,5-diene-1-sulfonamide] | 0.1 to 1 | – | – |
| CC(C)=CCC/C(C)=C/CNC(=O)c1ccccc1 [NQ 2982, (E)-N-(3,7-dimethylocta-2,6-dienyl)benzamide] | 1 to 5 | 103 | – |
| CC(C)=CCC/C(C)=C/S(=O)(=O)Nc1ccccc1 [NQ 3070, (E)-2,6-dimethyl-N-phenylhepta-1,5-diene-1-sulfonamide] | 0.1 to 1 | – | – |
| CC(C)=CCC/C(C)=C/COCc1ccccc1 [NQ 2977, (E)-((3,7-dimethylocta-2,6-dienyloxy)methyl)benzene] | 1 to 5 | – | – |
| CC(C)=CCC/C(C)=C/C(N)=O [NQ 2992, (E)-3,7-dimethylocta-2,6-dienamide] | 0.1 to 1 | – | – |
| CC(C)=CCC/C(C)=C/C(N)Cc1ccccc1 (stereo not shown) [NQ 3089, (E)-4,8-dimethyl-1-phenylnona-3,7-dien-2-amine] | < 0.1 | – | – |
| CC(C)=CCC/C(C)=C/C(O)C(F)(F)F (stereo not shown) [NQ 3065, (E)-1,1,1-trifluoro-4,8-dimethylnona-3,7-dien-2-ol] | 0.1 to 1 | – | – |
| CC(C)=CCC/C(C)=C/C(=O)O [NQ 2984, (E)-3,7-dimethylocta-2,6-dienoic acid] | 1 to 5 | > 200 | – |
| COC/C=C(\C)CCC=C(C)C [NQ 2976, (E)-1-methoxy-3,7-dimethylocta-2,6-diene] | 1 to 5 | 874 | – |
| CNS(=O)(=O)/C=C(/C)CCC=C(C)C [NQ 3061, (Z)-N,2,6-trimethylhepta-1,5-diene-1-sulfonamide] | 0.1 to 1 | – | – |
| CC(C)=CCC/C(C)=C\[S+](C)[O-] (stereo not shown) [NQ 3062, (Z)-2,6-dimethyl-1-(methylsulfinyl)hepta-1,5-diene] | 1 to 5 | – | – |
| CCCC(N)/C=C(\C)CCC=C(C)C (stereo not shown) [NQ 3081, (E)-6,10-dimethylundeca-5,9-dien-4-amine] | < 0.1 | – | – |
| CC(C)=CCC/C(C)=C/C(=O)Nc1ccccc1 [NQ 2986, (E)-3,7-dimethyl-N-phenylocta-2,6-dienamide] | 5 to 10 | 449 | – |
| CC(C)=CCC/C(C)=C/S(C)(=O)=O [NQ 3047, (E)-2,6-dimethyl-1-(methylsulfonyl)hepta-1,5-diene] | 1 to 5 | – | – |
| CC(C)=CCC/C(C)=C/S(=O)(=O)N(C)C [NQ 3051, (E)-N,N,2,6-tetramethylhepta-1,5-diene-1-sulfonamide] | 0.1 to 1 | – | – |
| CC(C)=CCC/C(C)=C\S(=O)(=O)N(C)C [NQ 3050, (Z)-N,N,2,6-tetramethylhepta-1,5-diene-1-sulfonamide] | 0.1 to 1 | – | – |
